Source: paper PMC12214830, “The human RIF1-Long isoform interacts with BRCA1 to promote recombinational fork repair under DNA replication stress” (Nature Communications, 2025)

Tests used:
Format in all cases: cell-based, human
[1] = tested on: RIF1-BRCA1 proximity in HeLa cells; test: RIF1-BRCA1 proximity ligation assay, HeLa cells
Procedure: Proximity ligation assays were performed using the Duolink In Situ PLA Fluorescence Protocol (Sigma-Aldrich, DUO92101) following the manufacturer’s instruction. Cells were grown on glass coverslips and treated as indicated for specific experiments. Cells were then permeabilized with 0.5% TritonX-100 in PBS for 10 min on ice, and fixed with 3% formaldehyde, 2% sucrose in PBS for 10 min at room temperature (RT). After fixation, coverslips were blocked in 3% BSA in PBS for 1 h at RT and incubated with primary antibodies (anti-RIF1, Bethel laboratories A300-568A, 1:1000 dilution; anti-BRCA1, Santa Cruz Biotechnologies, sc-6954, 1:200 dilution), for 1 h at RT in a humidity chamber. Primary antibodies were then washed off with PLA washing buffer A supplied in the Duolink In Situ PLA kit. Coverslips were next incubated sequentially with PLA Probes (1 h at 37 °C), ligation solution (30 min at 37 °C) and amplification solution (100 min at 37 °C), with washes by washing buffer A in between each step. At the end of incubation, coverslips were washed with washing buffer B supplied in the Duolink In Situ PLA kit. Coverslips were then mounted on glass slides with PLA Mounting medium with DAPI. Images were captured by fluorescence microscopy (Zeiss Axio Imager). PLA foci number in each nucleus were analysed by CellProfiler Software[74] with a custom-made pipeline.
For proximity ligation assays and immunofluorescence signal intensity measurements, when comparing between two samples, statistical significance of differences was calculated by Mann-Whitney test for non-parametric distributions using GraphPad Prism software (v.9). When comparing among three or more samples, p values were calculated by Kruskal-Wallis test for non-parametric distributions with Dunn’s multiple comparisons using GraphPad Prism software (v.9). For RIF1 foci formation analysis (Fig. 6B), p values were calculated by two-tailed Student’s t test. For nuclear BRCA1 intensity fold change analyses (Fig. 6C, D), p values were calculated by two-tailed one-sample t test using GraphPad Prism software (v.9). For RAD51 foci formation analyses (Fig. 7B, E and Supplementary Fig. 7B), p values were calculated by chi-square test. For HR Reporter assay analysis (Fig. 7G and Supplementary Fig. 7L), p values were calculated by two-tailed paired Student’s t test. For micronuclei frequency analysis (Fig. 7H), p values were calculated by one-tailed paired Student’s t test. All Student’s t tests were performed with Excel T.TEST function. Chi-square tests were performed with the online Chi-square test calculator at https://www.socscistatistics.com/tests/chisquare2/default2.aspx. Sample number n for all box-and-whisker plots and dot plots are listed in Supplementary Data 1.

[2] = tested on: RIF1-L interaction with BRCA1; test: RIF1-BRCA1 / RIF1-BRCA1-BRCT co-immunoprecipitation, Flp-In T-REx 293 cells; conditions: HU 4 mM, 4 h or 24 h; Fig. 5H, I
Procedure: For mCherry IP and GFP IP, cells were washed once with ice-cold TBS, lysed with IP lysis buffer (1X TBS, 0.5 mM EDTA, 1% CHAPS, 1 mM PMSF, 3 mM MgCl2, 1X Halt Protease & Phosphatase inhibitor), and incubated with 1 µl/ml Benzonase (Sigma-Aldrich, E1014) for 45 min at 4 °C with rotation. RFP-Trap or GFP-Trap Magnetic Agarose beads (Chromotek) were washed three times in IP buffer 1 (1X TBS, 0.5 mM EDTA) and then incubated with cell lysates for 1 h at 4 °C with rotation. Beads were next washed three times with IP washing buffer (1X TBS, 0.5 mM EDTA, 0.1% CHAPS, 1 mM PMSF, 250 mM NaCl, 1X Halt Protease & Phosphatase inhibitor), after which bead-bound proteins (IP fractions) were eluted by heating at 95 °C for 7 min. IP fractions were analysed by western blotting.
For FLAG IP, cell lysates were prepared in the same way. Dynabeads magnetic beads (Invitrogen) were incubated with […] anti-FLAG antibody (Sigma-Aldrich, F1804) in PBS supplemented with 0.02% Tween-20) for 10 min at RT with rotation. The antibody-bound beads were incubated with cell lysates for 1 h at 4 °C with rotation. Beads were then washed three times with PBS, after which bead-bound proteins (IP fractions) were eluted by heating at 95 °C for 7 min. IP fractions were analysed by western blotting.

[3] = tested on: GFP-RIF1-L / GFP-RIF1-L-pp1bs foci; test: GFP-RIF1 foci formation, HeLa cells; conditions: HU 4 mM 24 h
Procedure: (§1) Cells were grown on glass coverslips and treated as desired. Cells were then permeabilized with 0.5% TritonX-100 in PBS for 7 min on ice, and fixed with 4% w/v formaldehyde solution (Sigma HT5012) for 10 min at room temperature (RT). After fixation, coverslips were blocked with 3% BSA in PBS (RT, 1 h), incubated with primary antibodies (RT, 2 h), washed with PBS three times and incubated with secondary antibodies (RT, 1 h). Primary antibodies used for immunofluorescence include anti-γH2A.X (20E3) (Cell Signalling Technology, 9718. 1:500); anti-RPA32/RPA2 (9H8) (Abcam, ab2175. 1:200); anti-RAD51 (H92) (Santa Cruz Biotechnology, sc-8349. 1:100); anti-BrdU (B44) (BD Biosciences, 347580. 1:100); Coverslips were then mounted on glass slides with mounting medium with DAPI. Images were captured by either standard (Zeiss Axio Imager) or confocal (Zeiss LSM-880) microscopy. Fluorescence signal intensities within each nucleus were analysed by CellProfiler software with custom-made pipelines. Co-localisation analyses were performed with custom-made CellProfiler pipelines. Briefly, nuclei were identified and used to create masks. […]

RPA = test: chromatin-bound RPA immunofluorescence, RPE-1 cells; conditions: HU 4 mM 24 h
Procedure: as §1

[4] = Fig 5G/H, HeLa RIF1 KO + RIF1-L-pp1bs, HU 4 mM 24 h
[5] = Fig 5G/H, HeLa RIF1 KO + RIF1-L, HU 4 mM 24 h
[6] = Fig 5G/H, HeLa RIF1 KO, HU 4 mM 24 h
[7] = Fig S3F, HeLa RIF1-L-APKF, HU 4mM 24hr
[8] = Fig S3F, HeLa RIF1-L, HU 4mM 24hr
[9] = Fig S3F, HeLa RIF1-S, HU 4mM 24hr
[10] = Fig S4H, HeLa +RIF1-L, HU 4mM 24hr
[11] = Fig S4I, HeLa +RIF1-L, HU 4mM 24hr
[12] = Fig S5G (repeat), HeLa RIF1 WT (RIF1-L), HU 4mM 24hr
[13] = Fig S5G (repeat), HeLa RIF1 pp1bs, HU 4mM 24hr
[14] = Fig S5I, HeLa RIF1-L-pp1bs-APKF, HU 4mM 24hr
[15] = Fig S5I, HeLa RIF1-L-pp1bs, HU 4mM 24hr

`NC(=O)NO` [HU, hydroxyurea] was tested, and the “RIF1-BRCA1 PLA foci per nucleus, mean” value [1, 4] was 45.51, the “RIF1-BRCA1 PLA foci per nucleus, median” value [1, 4] was 42 and the “RIF1-BRCA1 PLA foci per nucleus, mean” value [1, 5] was 27.55. For the same compound, the “RIF1-BRCA1 PLA foci per nucleus, median” value [1, 5] was 21, the “RIF1-BRCA1 PLA foci per nucleus, mean” value [1, 6] was 1.394 and the “RIF1-BRCA1 PLA foci per nucleus, median” value [1, 6] was 1. For the same compound, the “RIF1-BRCA1 PLA foci per nucleus, mean” value [1, 7] was 14.65, the “RIF1-BRCA1 PLA foci per nucleus, median” value [1, 7] was 12 and the “RIF1-BRCA1 PLA foci per nucleus, mean” value [1, 8] was 18.04. For the same compound, the “RIF1-BRCA1 PLA foci per nucleus, median” value [1, 8] was 15, the “RIF1-BRCA1 PLA foci per nucleus, mean” value [1, 9] was 13.85 and the “RIF1-BRCA1 PLA foci per nucleus, median” value [1, 9] was 12. For the same compound, the “RIF1-BRCA1 PLA foci per nucleus, mean” value [1, 10] was 21.43, the “RIF1-BRCA1 PLA foci per nucleus, median” value [1, 10] was 20 and the “RIF1-BRCA1 PLA foci per nucleus, mean” value [1, 11] was 18.83. The “RIF1-BRCA1 PLA foci per nucleus, median” value [1, 11] was 2, 17, 17, the “RIF1-BRCA1 PLA foci per nucleus, mean” value [1, 12] was 40.69 and the “RIF1-BRCA1 PLA foci per nucleus, median” value [1, 12] was 37. For the same compound, the “RIF1-BRCA1 PLA foci per nucleus, mean” value [1, 13] was 62.09, the “RIF1-BRCA1 PLA foci per nucleus, median” value [1, 13] was 62 and the “RIF1-BRCA1 PLA foci per nucleus, mean” value [1, 14] was 46.58. The “RIF1-BRCA1 PLA foci per nucleus, median” value [1, 14] was 42, the “RIF1-BRCA1 PLA foci per nucleus, mean” value [1, 15] was 53.47 and the “RIF1-BRCA1 PLA foci per nucleus, median” value [1, 15] was 53. For the same compound, the “RIF1-L interaction with BRCA1” value [2] was “increased RIF1-L interaction with BRCA1”, the “HU-treated cells with distinct GFP-RIF1-L-pp1bs foci” value ([3]; HeLa GFP-RIF1-L-pp1bs) was ~ 70% and the “HU-treated cells with clear GFP-RIF1-L foci” value ([3]; HeLa GFP-RIF1-L) was ~ 10%. The “chromatin-bound RPA” value (RPA) was “both increased upon HU treatment”.
